The results in this text go back to ChEMBL document CHEMBL4014287, “Jesridonin in combination with paclitaxel demonstrates synergistic anti-tumor activity in human esophageal carcinoma cells” (Bioorg Med Chem Lett, 2017).

For data set [1], the system named is ECa-109 cell line. The data set is described as follows: Cytotoxicity against human EC109 cells assessed as combination index at 5 uM in presence of 5 nM paclitaxel. The format is functional.
For data set [2], the system named is ECa-109 cell line. The data set is described as follows: Induction of apoptosis in human EC109 cells assessed as decrease in Mcl-1 level at 15 uM in presence of 5 nM paclitaxel by Western blot method. In kind it is functional, cell-based. On the technique in general: In western blotting, separated proteins are transferred to a membrane and probed.
Data set [3] has as its system Mus musculus. The data set is described as follows: Hepatotoxicity in nude mouse xenografted with human EC109 cells assessed as change in serum ALT level at 10 mg/kg in presence of paclitaxel measured after 21 days. In kind it is toxicity, organism-based. To be noted: in vivo, 504 h.
The test system of data set [4] is ECa-109 cell line. As to the kind of experiment: Induction of apoptosis in human EC109 cells assessed as necrotic cells at 15 uM after 24 hrs in presence of paclitaxel by Annexin V-FITC/propidium iodide staining based flow cytometry (reference value: 1.6 %). In kind it is functional. On the technique in general: Flow cytometry measures light scatter and fluorescence of single cells or particles in a stream.

In data set [5] the test system is ECa-109 cell line. The data set is described as follows: Induction of apoptosis in human EC109 cells assessed as increase in PUMA level at 15 uM in presence of 5 nM paclitaxel by Western blot method. The format is functional, cell-based.
Data set [6] has as its system ECa-109 cell line. The data set is described as follows: Induction of apoptosis in human EC109 cells assessed as nuclear shrinkage at 15 uM after 24 hrs by Hochest 33258 staining based fluorescent microscopic analysis. In kind it is functional, cell-based.
Data set [7] has as its system ECa-109 cell line. The data set is described as follows: Cytotoxicity against human EC109 cells assessed as combination index at 5 uM in presence of 10 nM paclitaxel. In kind it is functional.
The subject of data set [8] is ECa-109 cell line. The data set is described as follows: Cytotoxicity against human EC109 cells assessed as combination index at 5 uM in presence of 2.5 nM paclitaxel. In kind it is functional.
Data set [9] deals with ECa-109 cell line. The data set is described as follows: Cytotoxicity against human EC109 cells assessed as combination index at 10 uM in presence of 5 nM paclitaxel. The format is functional.
Data set [10] relates to ECa-109 cell line. As to the kind of experiment: Cytotoxicity against human EC109 cells assessed as reduction in cell viability after 24 hrs by MTT assay. In kind it is functional, cell-based. A general note: Tetrazolium assays rely on reduction of a dye to a coloured formazan, in cell work by metabolically active cells.
In data set [11] the test system is Mus musculus. The data set is described as follows: Toxicity in nude mouse xenografted with human EC109 cells assessed as skin ulceration at 10 mg/kg measured after 21 days. In kind it is organism-based. To be noted: in vivo, 504 h.
The subject of data set [12] is Mus musculus. The data set is described as follows: Toxicity in nude mouse xenografted with human EC109 cells assessed as pathological changes at 10 mg/kg in presence of paclitaxel measured after 21 days. The format is organism-based. To be noted: in vivo, 504 h.
The subject of data set [13] is ECa-109 cell line. The data set is described as follows: Cytotoxicity against human EC109 cells assessed as combination index at 15 uM in presence of 5 nM paclitaxel. In kind it is functional.
The subject of data set [14] is ECa-109 cell line. As to the kind of experiment: Induction of apoptosis in human EC109 cells assessed as increase in Bid level at 15 uM in presence of 5 nM paclitaxel by Western blot method. In kind it is functional, cell-based.
For data set [15], the system named is ECa-109 cell line. The data set is described as follows: Induction of apoptosis in human EC109 cells assessed as viable cells at 15 uM after 24 hrs by Annexin V-FITC/propidium iodide staining based flow cytometry (reference value: 96.1%). In kind it is functional. To be noted: ECa-109, 24 h, read-out: Activity.
The subject of data set [16] is ECa-109 cell line. The data set is described as follows: Antitumor activity against human EC109 cells xenografted in nude mouse assessed as increase in apoptotic cells at 10 mg/kg in presence of paclitaxel measured after 21 days by TUNEL assay. In kind it is functional, organism-based.
Data set [17] concerns ECa-109 cell line. The data set is described as follows: Induction of apoptosis in human EC109 cells assessed as decrease in Bcl-XL level at 15 uM in presence of 5 nM paclitaxel by Western blot method. In kind it is functional, cell-based.
Data set [18] concerns ECa-109 cell line. The data set is described as follows: Cytotoxicity against human EC109 cells assessed as combination index at 10 uM in presence of 2.5 nM paclitaxel. The format is functional.
Data set [19] relates to ECa-109 cell line. As to the kind of experiment: Induction of apoptosis in human EC109 cells assessed as decrease in pro-caspase 3 expression at 15 uM in presence of 5 nM paclitaxel by Western blot method. In kind it is functional, cell-based.
The test system of data set [20] is Mus musculus. As to the kind of experiment: Hepatotoxicity in nude mouse xenografted with human EC109 cells assessed as change in serum AST level at 10 mg/kg in presence of paclitaxel measured after 21 days. The format is toxicity, organism-based. To be noted: in vivo, 504 h.

The source made the active and inactive calls. No cut-off for these calls is given here.

In the case of `C=C1C(=O)[C@@]23[C@@H]4OC(c5ccc(Cl)cc5)O[C@@]25OC[C@@]2([C@H]([C@@H]5O)C(C)(C)CC[C@@H]2O)[C@@H]3CC[C@@H]14` (stereo not given in full), the CI is recorded as 0.75 in data set [1]; 0.48 in data set [7]; 1.79 in [8]; 0.43 in [9]; 0.37 in [13]; 0.56 in [18]. Also, the outcome in data set [2], in data set [5], in data set [6], in data set [14], in data set [16] and in data set [17] was Active. For the same compound, the result in data set [19] was Active. Further, the Activity entry in data set [3] is “Non-Toxic”; in data set [4], 1.5%; in data set [10], “Dose-dependent effect”; in data set [11], “Non-Toxic”; in data set [12], “Non-Toxic”; in data set [20], “Non-Toxic”. Moreover, the viability at 15 µM in [15] turned out to be 73.1%.
